Source: US7018796B2, “Preincubation assay methods” (Shionogi & Co., Ltd., priority 2000, dated 2006)

Target: T1, HCV RNA-dependent RNA polymerase (Hepatitis C virus genotype 1a, UniProt P27958)
T1 construct: HCV RNA-dependent RNA polymerase is encoded in the NS5B (nonstructural protein 5B) region of HCV; made in house; host or cells: insect cells or E. coli
Assay: DIG-UTP assay without radioisotope-labeled substrate, with pre-incubation (Example 2)
Type: biochemical
Conditions: pre-incubation 25° C. 1 hr, I-1 0.5 μg/ml, 3′-dUTP 0.7 μM, A 100 μg/ml, B 50 μg/ml, C 25 μg/ml
Method: In Example 1, ^3H-UTP, that is UTP labeled with tritium as radioisotope was used as substrate in the assay with pre-incubation using HCV RNA-dependent RNA polymerase. Herein, digoxigenin-labeled UTP (DIG-UTP) instead of ^3H-UTP was used as substrate in the assay with pre-incubation using HCV RNA-dependent RNA polymerase. • 1) Streptavidin (1 mg/ml) was dissolved in the phosphate buffer saline (PBS) containing NaCl (0.137 M), KCl (2.68 mM), potassium dihydrogenphosphate (1.47 mM) and sodium phosphate (8.06 mM). • 2) The streptavidin solution was diluted 25-fold with the carbonate buffer containing sodium carbonate (0.9 M) and sodium hydrogencarbonate (0.1 M). • 3) The 25-fold streptavidin solution (50 μl/well) was transferred to a well of 96 wells-microtiter palate with flat bottom for immunoassay and then the plate was kept at 4° C. over night. • 4) After the 96 wells-microtiter plate was coated with streptavidin, the well was washed twice by adding, mixing and draining PBS (200 μl/well). • 5) The skim milk dissolved with PBS (1%, 300 μl) was transferred into each well and was kept at room temperature for 30 min. • 6) After the plate was washed once with PBS (200 μl/well), the well was filled with PBS (300 μl/well) and then the plate was stored at 4° C. • 7) After the PBS was drained from the streptavidin-coated plate stored under the condition described in 6), the well was washed once with PBS (200 μl/well) and was filled with de-ionized water (300 μl/well). • 8) The buffer I (10 μl) containing Tris-HCl (100 mM, pH 7.5), MgCl2 (25 mM), dithiothreitol (5 mM), KCl (125 mM) and ethylenediaminetetraacetic acid (5 mM) was transferred to a polypropylene tube and then poly(A) solution (6.25 μg/ml, 10 μl), biotin-labeled oligo(U)12 solution (3 μg/ml, 10 μl), water (10 μl) and HCV RNA-dependent RNA polymerase solution (10 μl) were added into the tube and mixed calmly. • 9) De-ionized water was drained from the plate described in 7), and the solution (50 μl/well) at once after the mixing described in 8) was transferred to each well. After mixing by a plate mixer, the solution was pre-incubated at 25° C. for 1 hr. • 10) On the other hand, the buffer I (10 μl) was transferred into another tube, and UTP (1 μM, 10 μl), DIG-UTP (300 μM, 1 μl), water (24 μl) and a test compound dissolved with dimethyl sulfoxide or water (5 μl) were added to the tube and mixed calmly. Concentrations of the compounds used were as follows.
• 11) The mixed solution (50 μl/well) described in 10) was transferred into each well after the pre-incubation described in 9), mixed by a plate mixer and then incubated at 25° C. for 1 hr. • 12) When the enzyme reaction was in 1 hr, the enzyme reaction was stopped by adding ethylenediaminetetraacetic acid (0.1 M, 50 μl/well). • 13) The plate was washed twice with PBS (200 μl/well) after end of the enzyme reaction. • 14) Next, alkaline phosphatase-labeled anti-DIG antibody (3 U/ml, 100 μl/well) diluted 250-fold with PBS containing skim milk (0.5%) was transferred each well. […] The substrate solution was transferred into each well of the plate, mixed by a plate mixer and then incubated at 25° C. for 1 hr until the color appears in the solution. • 17) The plate was set on a plate reader and the absorbance was measured at 405 nm. • 18) The inhibitory rate was calculated from the optical density (unit; OD) measured as follows. […]

T1 sequence (P27958 2421-3011): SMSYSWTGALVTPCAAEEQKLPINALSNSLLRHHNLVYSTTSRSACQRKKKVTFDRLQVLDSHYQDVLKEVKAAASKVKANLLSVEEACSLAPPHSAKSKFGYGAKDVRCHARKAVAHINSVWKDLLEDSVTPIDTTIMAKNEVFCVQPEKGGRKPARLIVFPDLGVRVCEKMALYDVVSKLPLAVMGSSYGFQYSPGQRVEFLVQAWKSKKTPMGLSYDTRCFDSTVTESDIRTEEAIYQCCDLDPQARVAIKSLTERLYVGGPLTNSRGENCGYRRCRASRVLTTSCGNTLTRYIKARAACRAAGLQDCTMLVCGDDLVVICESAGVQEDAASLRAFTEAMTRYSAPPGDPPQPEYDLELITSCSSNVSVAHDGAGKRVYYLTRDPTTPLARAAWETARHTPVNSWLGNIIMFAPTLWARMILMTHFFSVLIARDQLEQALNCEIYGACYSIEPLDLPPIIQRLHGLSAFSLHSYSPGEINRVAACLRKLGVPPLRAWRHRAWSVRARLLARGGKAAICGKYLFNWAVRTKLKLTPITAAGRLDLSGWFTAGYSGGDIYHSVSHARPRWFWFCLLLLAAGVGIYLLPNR

SMILES | Inhibitory rate, treatment of pre-incubation + [%] | inhibition at 0.5 µg/mL (read-out: Inhibitory rate, treatment of pre-incubation +) [%]
O=c1ccn([C@@H]2O[C@H](COP(=O)(O)OP(=O)(O)OP(=O)(O)O)C[C@H]2O)c(=O)[nH]1 [3′-dUTP, 3′-deoxyuridine triphosphate] | 50 | –
Cc1oc(-c2ccccc2)nc1CCOc1ccc(C=C2C(=O)NC(=O)NC2=O)cc1 [Compound A] | 24 | –
O=C1NC(=O)C(=Cc2ccc(OCCc3cccc4ccccc34)cc2)C(=O)N1 [Compound B] | 20 | –
CCCCC1=N/C(=C\c2ccccc2OCC(=O)O)C(=O)N1Cc1ccc(-c2ccccc2-c2nnn[nH]2)cc1 [Compound C] | 15 | –
O=C(O)/C(O)=C/C(=O)c1cccc(O)c1 [Compound I-1] | – | 52
